# Reference: patent US7166609B2, “Pyrimidine-4,6-dicarboxylic acid diamides for selectively inhibiting collagenases” (Sanofi-Aventis Deutschland GmbH, priority 2002, dated 2007)
# Read-outs that look alike come from different tables or passages of the source.
# Target: T1, catalytic domain of human collagenase 3 (MMP-13) (Homo sapiens, UniProt P45452)
# T1 construct: Determining the enzyme activity of the catalytic domain of human collagenase 3 (MMP-13); purchased INVITEK, Berlin 30 100 803
# Experiment: Enzyme activity of the catalytic domain of human collagenase 3 (MMP-13), fluorogenic substrate
# Format: biochemical
# Method: Determining the enzyme activity of the catalytic domain of human collagenase 3 (MMP-13).
# Activating the proenzyme:
# 2 parts by volume of proenzyme are incubated with 1 part by volume of APMA solution at 37° C. for 1.5 hours. The APMA solution is prepared from a 10 mmol/L solution of p-aminophenylmercuric acetate in 0.1 mmol/L NaOH by diluting with 3 parts by volume of tris/HCl buffer, pH 7.5 (see below). The pH is adjusted to between 7.0 and 7.5 by adding 1 mmol/L HCl. After the enzyme has been activated, it is diluted to a concentration of 1.67 μg/ml using the tris/HCl buffer.
# In order to measure the enzyme activity, 10 μL of enzyme solution are incubated for 15 minutes with 10 μL of a 3% (v/v) buffered solution of dimethyl sulfoxide (reaction 1). In order to measure the enzyme inhibitor activity, 10 μL of enzyme solution are incubated with 10 μL of a 3% (v/v) buffered solution of dimethyl sulfoxide containing the enzyme inhibitor (reaction 2).
# In the case of both reaction 1 and reaction 2, the enzyme reaction is monitored by fluorescence spectroscopy (328 nm (extinction)/393 nm (emission)) after adding 10 μL of a 3% (v/v) aqueous solution of dimethyl sulfoxide containing 0.75 mmol of the substrate/L.
# The enzyme activity is depicted as increase in extinction/minute.
# The effect of the inhibitor is calculated as a percentage inhibition using the following formula: % inhibition=100−[(increase in extinction/minute in reaction 2)/(increase in extinction/minute in reaction 1)×100].
# The IC50, i.e. the inhibitor concentration which is required for inhibiting the enzyme activity by 50%, is determined graphically by plotting the percentage inhibitions at different inhibitor concentrations.
# The buffer solution contains 0.05% Brij (Sigma, Deisenhofen, Germany) and 0.1 mol of tris/HCl/L, 0.1 mol of NaCl/L and 0.01 mol of CaCl2/L (pH=7.5). The enzyme solution contains 1.67 μg of the enzyme domain/mL.
# The substrate solution contains 0.75 mmol/L of the fluorogenic substrate (7-methoxycoumarin-4-yl)acetyl-Pro-Leu-Gly-Leu-3-(2′,4′-dinitrophenyl)-L-2,3-diaminopropionyl-Ala-Arg-NH2 (Bachem, Heidelberg, Germany).
# [1] = catalytic domain, activated proenzyme, pH 7.5, read-out: IC50 MMP13
Compound,IC50 [1] [µM],IC50 [µM]
Cc1cc(CNC(=O)c2cc(C(=O)NCc3ccc(C(=O)N4CCNC(=O)C4)cc3)ncn2)ccc1F [Example 75],0.07,
COc1cccc(CNC(=O)c2cc(C(=O)NCc3ccc(C(=O)N4CCOCC4)cc3)ncn2)c1 [Example 151],0.009,
CC#CCOC(=O)Nc1ccc(CNC(=O)c2cc(C(=O)NCc3cccc(OC)c3)ncn2)cc1 [Example 139],0.01,
O=C1CN(C(=O)c2ccc(CNC(=O)c3cc(C(=O)NCc4ccc5c(c4)CCO5)ncn3)cc2)CCN1 [Example 74],0.03,
COC(=O)CNC(=O)c1ccc(CNC(=O)c2cc(C(=O)NCc3ccc(F)c(C)c3)ncn2)cc1 [Example 106],0.04,
O=C(NCc1ccc(C(=O)N2CCOCC2)cc1)c1cc(C(=O)NCc2ccc(F)c(Cl)c2)ncn1 [Example 154],0.022,
O=C(NCc1ccncc1)c1ccc(CNC(=O)c2cc(C(=O)NCc3ccc4c(c3)CCO4)ncn2)cc1 [Example 82],0.03,
COc1cccc(CNC(=O)c2cc(C(=O)NCc3ccc(C(=O)NC4CCNCC4)cc3)ncn2)c1 [Example 109],0.05,
Cc1cc(CNC(=O)c2cc(C(=O)NCc3ccc(C(=O)NCCO)cc3)ncn2)ccc1F [Example 76],0.023,
O=C(NO)c1ccc(CNC(=O)c2cc(C(=O)NCc3ccc4c(c3)CCO4)ncn2)cc1 [Example 94],0.02,
O=C(NCc1ccc(C(=O)N2CCC(O)CC2)cc1)c1cc(C(=O)NCc2ccc3c(c2)CCO3)ncn1 [Example 68],0.022,
O=C(NCc1cccnc1)c1cc(C(=O)NCc2ccc3c(c2)OCCO3)ncn1 [Example 44],0.2,
COc1cccc(CNC(=O)c2cc(C(=O)NCc3ccc(NC(=O)Nc4cc(Cl)nc(Cl)c4)cc3)ncn2)c1 [Example 137],0.04,
N#CNC(=O)c1ccc(CNC(=O)c2cc(C(=O)NCc3ccc4c(c3)CCO4)ncn2)cc1 [Example 85],0.0035,
COc1cccc(CNC(=O)c2cc(C(=O)NCc3ccc(C(=O)N4CCNC(=O)C4)cc3)ncn2)c1 [Example 73],0.025,
COc1cccc(CNC(=O)c2cc(C(=O)NCc3ccc(C(=O)N4CCC(O)CC4)cc3)ncn2)c1 [Example 67],0.015,
O=C(NCc1ccc2c(c1)CCO2)c1cc(C(=O)NCc2cc(Cl)cs2)ncn1 [Example 129],0.022,
COc1cccc(CNC(=O)c2cc(C(=O)NCc3ccc(C(=O)N4CCN(c5ccncc5)CC4)cc3)ncn2)c1 [Example 115],0.02,
CCCNC(=O)c1ccc(CNC(=O)c2cc(C(=O)NCc3cccc(OC)c3)ncn2)cc1 [Example 62],0.013,
Cc1cc(CNC(=O)c2cc(C(=O)NCc3ccc(C(=O)N4CCOCC4)cc3)ncn2)ccc1F [Example 87],0.024,

Compound,IC50 [1] [µM],IC50 [µM]
COc1cccc(CNC(=O)c2cc(C(=O)NCc3ccc(C(=O)NC#N)cc3)ncn2)c1 [Example 86],0.0025,
COc1cccc(CNC(=O)c2cc(C(=O)NCc3ccc(NC(=O)NC(C)(C)C)cc3)ncn2)c1 [Example 138],0.05,
Cc1cc(CNC(=O)c2cc(C(=O)NCc3ccc(C(=O)N4CCC(=O)CC4)cc3)ncn2)ccc1F [Example 65],,0.015
Cc1cc(CNC(=O)c2cc(C(=O)NCc3ccc(C(=O)NC#N)cc3)ncn2)ccc1F [Example 78],0.003,
Cc1cc(CNC(=O)c2cc(C(=O)NCc3ccc(C(=O)NO)cc3)ncn2)ccc1F [Example 93],0.02,
O=C(O)CNC(=O)c1ccc(CNC(=O)c2cc(C(=O)NCc3ccc4c(c3)CCO4)ncn2)cc1 [Example 98],0.02,
C#CCOC(=O)Nc1ccc(CNC(=O)c2cc(C(=O)NCc3cccc(OC)c3)ncn2)cc1 [Example 144],0.009,
Cc1cc(CNC(=O)c2cc(C(=O)NCc3ccc(C(=O)N4CCSCC4)cc3)ncn2)ccc1F [Example 70],0.024,
COc1cccc(CNC(=O)c2cc(C(=O)NCc3ccc(NC(=O)NC(=O)c4ccccc4)cc3)ncn2)c1 [Example 147],0.003,
O=C1CCN(C(=O)c2ccc(CNC(=O)c3cc(C(=O)NCc4ccc5c(c4)CCO5)ncn3)cc2)CC1 [Example 66],,0.01
CS(=O)(=O)NC(=O)Nc1ccc(CNC(=O)c2cc(C(=O)NCc3ccc(F)c(Cl)c3)ncn2)cc1 [Example 63],0.009,
COc1cccc(CNC(=O)c2cc(C(=O)NCc3ccc(NC(=O)CN4CCCC4)cc3)ncn2)c1 [Example 128],0.06,
COc1cccc(CNC(=O)c2cc(C(=O)NCc3ccc(NC(=O)NS(C)(=O)=O)cc3)ncn2)c1 [Example 101],0.002,
CS(=O)(=O)NC(=O)Nc1ccc(CNC(=O)c2cc(C(=O)NCc3ccc4c(c3)CCO4)ncn2)cc1 [Example 84],0.0032,
COc1cccc(CNC(=O)c2cc(C(=O)NCc3ccc(NC(=O)OC(C)C)cc3)ncn2)c1 [Example 6],0.02,
COc1cccc(CNC(=O)c2cc(C(=O)NCc3ccc(C(=O)N4CCSCC4)cc3)ncn2)c1 [Example 71],0.009,
O=C(NCCO)c1ccc(CNC(=O)c2cc(C(=O)NCc3ccc4c(c3)CCO4)ncn2)cc1 [Example 75a],0.034,
Cc1cc(CNC(=O)c2cc(C(=O)NCc3ccc4c(c3)OCCN4C)ncn2)ccc1F [Example 112],0.045,
Cc1cc(CNC(=O)c2cc(C(=O)NCc3ccc(C(=O)N4CCC(O)CC4)cc3)ncn2)ccc1F [Example 69],0.032,
COc1cccc(CNC(=O)c2cc(C(=O)NCc3ccc(NC(=O)NC(=O)C4CCCCC4)cc3)ncn2)c1 [Example 125],0.004,

Compound,IC50 [1] [µM],IC50 [µM]
"O=C(NCc1ccc(C(=O)N2CCOCC2)cc1)c1cc(C(=O)NCc2ccc3c(c2)CCO3)ncn1 [Example 5, Pyrimidine-4,6-dicarboxylic acid 4-[(2,3-dihydrobenzofuran-5-ylmethyl)amide]6-[4-(morpholine-4-carbonyl)benzylamide]]",0.008,
COc1cccc(CNC(=O)c2cc(C(=O)NCc3ccc(C(=O)NCCN4CCOCC4)cc3)ncn2)c1 [Example 36],0.01,
COc1cccc(CNC(=O)c2cc(C(=O)NCc3ccc(C(=O)NO)cc3)ncn2)c1 [Example 89],0.018,
CN1CCN(C(=O)c2ccc(CNC(=O)c3cc(C(=O)NCc4ccc5c(c4)CCO5)ncn3)cc2)CC1 [Example 119],0.035,
"O=C(NCc1ccncc1)c1cc(C(=O)NCc2ccc3c(c2)CCO3)ncn1 [Example 4, Pyrimidine-4,6-dicarboxylic acid4-[(2,3-dihydrobenzofuran-5-ylmethyl)amide] 6-[(pyridin-4-ylmethyl)amide]]",0.02,
COc1cccc(CNC(=O)c2cc(C(=O)NCc3ccc(C(=O)N4CCN(C)CC4)cc3)ncn2)c1 [Example 114],0.05,
COc1cccc(CNC(=O)c2cc(C(=O)NCc3ccc(NC(=O)NC(=O)c4cccnc4)cc3)ncn2)c1 [Example 126],0.0023,
COc1cccc(CNC(=O)c2cc(C(=O)NCc3ccc(C(=O)NC(C)(C)C)cc3)ncn2)c1 [Example 96],0.05,
COc1cccc(CNC(=O)c2cc(C(=O)NCc3cccc(NC(=O)NS(C)(=O)=O)c3)ncn2)c1 [Example 88],0.033,
COc1cccc(CNC(=O)c2cc(C(=O)NCc3ccc(C(=O)N4CCC(=O)CC4)cc3)ncn2)c1 [Example 64],,0.01
Cc1cc(CNC(=O)c2cc(C(=O)NCc3ccc(NC(=O)NS(C)(=O)=O)cc3)ncn2)ccc1F [Example 83],0.005,
Cc1cc(CNC(=O)c2cc(C(=O)NCc3ccc(C(=O)NCCN4CCOCC4)cc3)ncn2)ccc1F [Example 105],0.023,
O=C(NCc1ccc(OCCN2CCOCC2)cc1)c1cc(C(=O)NCc2ccc3c(c2)CCO3)ncn1 [Example 135],0.02,
COc1cccc(CNC(=O)c2cc(C(=O)NCc3ccc(NC(=O)NC(=O)C(C)C)cc3)ncn2)c1 [Example 127],0.0033,
COc1cccc(CNC(=O)c2cc(C(=O)NCc3ccc(NC(=O)NS(=O)(=O)c4ccccc4)cc3)ncn2)c1 [Example 121],0.03,
O=C(NCCN1CCOCC1)c1ccc(CNC(=O)c2cc(C(=O)NCc3ccc4c(c3)CCO4)ncn2)cc1 [Example 122],0.043,
COc1cccc(CNC(=O)c2cc(C(=O)NCc3ccc(NC(=O)NC4CCCCC4)cc3)ncn2)c1 [Example 136],0.02,
"CCN(CC)C(=O)c1ccc(CNC(=O)c2cc(C(=O)NCc3cccc(OC)c3)ncn2)cc1 [Example 3, Pyrimidine-4,6-dicarboxylic acid 4-(4-diethylcarbamoylbenzylamide) 6-(3-methoxybenzylamide)]",0.004,
CCN(CC)C(=O)c1ccc(CNC(=O)c2cc(C(=O)NCc3ccc(F)c(Cl)c3)ncn2)cc1 [Example 153],0.015,
COc1cccc(CNC(=O)c2cc(C(=O)NCc3cccc(NC(=O)OC(C)C)c3)ncn2)c1 [Example 150],0.08,
